# ChEMBL document CHEMBL3885861, “Open TG-GATES”
# Species on record: Rattus norvegicus
# Experiment: Open TG-GATES - Regimen: Single
# Format: toxicity, organism-based, Sprague-Dawley
# Set-up: regimen Single, gender Male, age 6 weeks
# Conditions: in vivo, po, 400 mg/kg, route gavage, dose level High; for APTT / Bas / Eos / Fbg / Hb / Ht / Lym / MCH / MCHC / MCV / Mono / Neu / PT / Plat / RBC / Ret / WBC: tissue Blood; for KIDNEY_L / KIDNEY_R / KIDNEY_TOTAL: tissue Kidney; for LIVER: tissue Liver; for A/G / ALP / ALT / AST / BUN / CRE / Ca / Cl / DBIL / GLC / IP / K / LDH / Na / PL / RALB / TBIL / TC / TG / TP / gamma-GTP: tissue Plasma
compound,measurement,setting,value
COc1ccc(Cc2nccc3cc(OC)c(OC)cc23)cc1OC [PAPAVERINE],TERMINAL_BW,3 h,228.2 g
same,APTT,3 h,23.4 s
same,Bas,3 h,0%
same,Eos,3 h,1%
same,Fbg,3 h,306.8 mg/dL
same,Hb,3 h,13.4 g/dL
same,Ht,3 h,40.3%
same,Lym,3 h,79%
same,MCH,3 h,20.7 pg
same,MCHC,3 h,33.3%
same,MCV,3 h,62 fL
same,Mono,3 h,2.4%
same,Neu,3 h,16.2%
same,PT,3 h,15.7 s
same,Plat,3 h,119 x10_4/uL
same,RBC,3 h,649.8 x10_4/ul
same,Ret,3 h,7.4%
same,WBC,3 h,64.1 x10_2/uL
same,KIDNEY_L,3 h,1 g
same,KIDNEY_R,3 h,1 g
same,KIDNEY_TOTAL,3 h,2 g
same,LIVER,3 h,9.9 g
same,A/G,3 h,1.2
same,ALP,3 h,1181 IU/L
same,ALT,3 h,39 IU/L
same,AST,3 h,66.8 IU/L
same,BUN,3 h,11.4 mg/dL
same,CRE,3 h,0.1 mg/dL
same,Ca,3 h,10.8 mg/dL
same,Cl,3 h,107.2 meq/L
same,DBIL,3 h,0 mg/dL
same,GLC,3 h,199.4 mg/dL
same,IP,3 h,9.7 mg/dL
same,K,3 h,4.1 meq/L
same,LDH,3 h,182 IU/L
same,Na,3 h,140.2 meq/L
same,PL,3 h,124 mg/dL
same,RALB,3 h,2.9 g/dL
same,TBIL,3 h,0.014 mg/dL
same,TC,3 h,75.2 mg/dL
same,TG,3 h,34 mg/dL
same,TP,3 h,5.4 g/dL
same,gamma-GTP,3 h,2.4 IU/L
same,TERMINAL_BW,6 h,223.8 g
same,APTT,6 h,22 s
same,Bas,6 h,0%
same,Eos,6 h,0.8%
same,Fbg,6 h,310.8 mg/dL
same,Hb,6 h,13.1 g/dL
same,Ht,6 h,40%
same,Lym,6 h,78%
same,MCH,6 h,20.6 pg
same,MCHC,6 h,32.9%
same,MCV,6 h,62.7 fL
same,Mono,6 h,3.6%
same,Neu,6 h,16.6%
same,PT,6 h,16 s
same,Plat,6 h,119.2 x10_4/uL
same,RBC,6 h,639 x10_4/ul
same,Ret,6 h,7.8%
same,WBC,6 h,84 x10_2/uL
same,KIDNEY_L,6 h,1 g
same,KIDNEY_R,6 h,1 g
same,KIDNEY_TOTAL,6 h,1.9 g
same,LIVER,6 h,9.2 g
same,A/G,6 h,1.2
same,ALP,6 h,1322.6 IU/L
same,ALT,6 h,36 IU/L
same,AST,6 h,73.6 IU/L
same,BUN,6 h,7.6 mg/dL
same,CRE,6 h,0.1 mg/dL
same,Ca,6 h,11.2 mg/dL
same,Cl,6 h,107.4 meq/L
same,DBIL,6 h,0.006 mg/dL
same,GLC,6 h,178.4 mg/dL
same,IP,6 h,10.2 mg/dL
same,K,6 h,4.3 meq/L
same,LDH,6 h,151.4 IU/L
same,Na,6 h,140.6 meq/L
same,PL,6 h,125.2 mg/dL
same,RALB,6 h,2.9 g/dL
same,TBIL,6 h,0.036 mg/dL
same,TC,6 h,75 mg/dL
same,TG,6 h,38.4 mg/dL
same,TP,6 h,5.3 g/dL
same,gamma-GTP,6 h,2 IU/L
same,TERMINAL_BW,9 h,221.7 g
same,APTT,9 h,23 s
same,Bas,9 h,0%
same,Eos,9 h,0.8%
same,Fbg,9 h,313.2 mg/dL
same,Hb,9 h,13.5 g/dL
same,Ht,9 h,40.5%
same,Lym,9 h,75%
same,MCH,9 h,20.8 pg
same,MCHC,9 h,33.3%
same,MCV,9 h,62.5 fL
same,Mono,9 h,2.2%
same,Neu,9 h,21%
same,PT,9 h,16.2 s
same,Plat,9 h,120.5 x10_4/uL
same,RBC,9 h,648.2 x10_4/ul
same,Ret,9 h,7.3%
same,WBC,9 h,73.1 x10_2/uL
same,KIDNEY_L,9 h,1 g
same,KIDNEY_R,9 h,1 g
same,KIDNEY_TOTAL,9 h,2 g
same,LIVER,9 h,8.5 g
same,A/G,9 h,1.3
same,ALP,9 h,1235.8 IU/L
same,ALT,9 h,26.8 IU/L
same,AST,9 h,64 IU/L
same,BUN,9 h,7.8 mg/dL
same,CRE,9 h,0.1 mg/dL
same,Ca,9 h,10.9 mg/dL
same,Cl,9 h,108.6 meq/L
same,DBIL,9 h,0.008 mg/dL
same,GLC,9 h,180.2 mg/dL
same,IP,9 h,9.5 mg/dL
same,K,9 h,4.3 meq/L
same,LDH,9 h,160 IU/L
same,Na,9 h,139.8 meq/L
same,PL,9 h,123.2 mg/dL
same,RALB,9 h,2.9 g/dL
same,TBIL,9 h,0.036 mg/dL
same,TC,9 h,68.2 mg/dL
same,TG,9 h,33.4 mg/dL
same,TP,9 h,5.3 g/dL
same,gamma-GTP,9 h,1.6 IU/L
same,TERMINAL_BW,24 h,240 g
same,APTT,24 h,21.2 s
same,Bas,24 h,0%
same,Eos,24 h,0.8%
same,Fbg,24 h,339.6 mg/dL
same,Hb,24 h,13 g/dL
same,Ht,24 h,39%
same,Lym,24 h,78.2%
same,MCH,24 h,20.8 pg
same,MCHC,24 h,33.4%
same,MCV,24 h,62.1 fL
same,Mono,24 h,2.6%
same,Neu,24 h,17.2%
same,PT,24 h,15.7 s
same,Plat,24 h,113.2 x10_4/uL
same,RBC,24 h,627.8 x10_4/ul
same,Ret,24 h,6.6%
same,WBC,24 h,86.7 x10_2/uL
same,KIDNEY_L,24 h,1 g
same,KIDNEY_R,24 h,1 g
same,KIDNEY_TOTAL,24 h,2 g
same,LIVER,24 h,11.4 g
same,A/G,24 h,1.3
same,ALP,24 h,1398.4 IU/L
same,ALT,24 h,41.2 IU/L
same,AST,24 h,66.6 IU/L
same,BUN,24 h,14 mg/dL
same,CRE,24 h,0.1 mg/dL
same,Ca,24 h,10.9 mg/dL
same,Cl,24 h,106 meq/L
same,DBIL,24 h,0 mg/dL
same,GLC,24 h,186.8 mg/dL
same,IP,24 h,7.5 mg/dL
same,K,24 h,4 meq/L
same,LDH,24 h,153.2 IU/L
same,Na,24 h,143.4 meq/L
same,PL,24 h,149.8 mg/dL
same,RALB,24 h,3.1 g/dL
same,TBIL,24 h,0.008 mg/dL
same,TC,24 h,82 mg/dL
same,TG,24 h,125.8 mg/dL
same,TP,24 h,5.4 g/dL
same,gamma-GTP,24 h,2 IU/L
